In brackets after ≈: the same amount, converted by molar mass.
What was measured:
Format in all cases: functional
Cryptococcus neoformans [1] = assay: Antifungal activity against Cryptococcus neoformans
Kluyveromyces marxianus = assay: Antifungal activity against Candida kefyr
Candida albicans [2] = assay: Antifungal activity against Candida albicans
Aspergillus fumigatus = assay: Antifungal activity against Aspergillus fumigatus
Candida tropicalis = assay: Antifungal activity against Candida tropicalis
Candida parapsilosis = assay: Antifungal activity against Candida parapsilosis
Trichophyton rubrum = assay: Antifungal activity against Trichophyton rubrum
Cryptococcus neoformans [3] = assay: Antifungal activity against Cryptococcus neoformans after 72 hrs by NCCLS protocol based method
Candida albicans [4] = assay: Antifungal activity against Candida albicans after 24 hrs by NCCLS protocol based method
[5] = Trichophyton rubrum, read-out: MIC
[6] = Cryptococcus neoformans, read-out: MIC
[7] = Lodderomyces parapsilosis, read-out: MIC

| Structure (SMILES) | MIC (Cryptococcus neoformans [1]) | MIC (Kluyveromyces marxianus) | MIC (Candida albicans [2]) | MIC (Aspergillus fumigatus) | MIC (Candida tropicalis) | MIC (Candida parapsilosis) | MIC (Trichophyton rubrum) | other results |
| --- | --- | --- | --- | --- | --- | --- | --- | --- |
| C#CCN(Cc1cccc(Br)c1)CC(O)(Cn1cncn1)c1ccc(F)cc1F (stereo unspecified) | 0.24 to 250 ng/mL | 0.24 to 250 ng/mL | 0.24 to 250 ng/mL | 0.24 to 250 ng/mL | 0.24 to 250 ng/mL | 0.24 to 250 ng/mL | 0.24 to 250 ng/mL | – |
| C#CCN(Cc1ccc(C)cc1)CC(O)(Cn1cncn1)c1ccc(F)cc1F (stereo unspecified) | 0.24 to 250 ng/mL | 0.24 to 250 ng/mL | 0.24 to 250 ng/mL | 0.24 to 250 ng/mL | 0.24 to 250 ng/mL | 0.24 to 250 ng/mL | 0.24 to 250 ng/mL | – |
| C#CCN(Cc1ccccc1)CC(O)(Cn1cncn1)c1ccc(F)cc1F (stereo unspecified) | 0.24 to 250 ng/mL | 0.24 to 250 ng/mL | 0.24 to 250 ng/mL | 0.24 to 250 ng/mL | 0.24 to 250 ng/mL | 0.24 to 250 ng/mL | 0.24 to 250 ng/mL | – |
| CCN(Cc1cn(Cc2ccc(Cl)cc2Cl)nn1)CC(O)(Cn1cncn1)c1ccc(F)cc1F (stereo unspecified) | – | – | – | – | – | – | – | MIC (Trichophyton rubrum; [5]): 3.9 ng/mL (≈ 7.47 nM) |
| CN(CCOc1ccc(CC2SC(=O)N(CC(O)(Cn3cncn3)c3ccc(F)cc3F)C2=O)cc1)c1ccccn1 (stereo unspecified) | – | – | – | – | – | – | – | MIC80 (Cryptococcus neoformans [3]): 13.4 µM (≈ 8 µg/mL); MIC80 (Candida albicans [4]): 6.72 µM (≈ 4 µg/mL) |
| C#CCN(Cc1ccc([N+](=O)[O-])cc1)CC(O)(Cn1cncn1)c1ccc(F)cc1F (stereo unspecified) | 0.24 to 250 ng/mL | 0.24 to 250 ng/mL | 0.24 to 250 ng/mL | 0.24 to 250 ng/mL | 0.24 to 250 ng/mL | 0.24 to 250 ng/mL | 0.24 to 250 ng/mL | – |
| C#CCN(Cc1cccc(C)c1)CC(O)(Cn1cncn1)c1ccc(F)cc1F (stereo unspecified) | 0.24 to 250 ng/mL | 0.24 to 250 ng/mL | 0.24 to 250 ng/mL | 0.24 to 250 ng/mL | 0.24 to 250 ng/mL | 0.24 to 250 ng/mL | 0.24 to 250 ng/mL | – |
| CCN(Cc1cn(Cc2ccc(Cl)cc2)nn1)CC(O)(Cn1cncn1)c1ccc(F)cc1F (stereo unspecified) | – | – | – | – | – | – | – | MIC (Cryptococcus neoformans [1]; [6]): 3.9 to 62.5 ng/mL (≈ 7.99 to 128 nM); MIC (Kluyveromyces marxianus; Kluyveromyces marxianus, read-out: MIC): 3.9 to 62.5 ng/mL (≈ 7.99 to 128 nM); MIC (Candida albicans [2]; Candida albicans, read-out: MIC): 3.9 to 62.5 ng/mL (≈ 7.99 to 128 nM); MIC (Candida tropicalis; Candida tropicalis, read-out: MIC): 3.9 to 62.5 ng/mL (≈ 7.99 to 128 nM); MIC (Candida parapsilosis; [7]): 3.9 to 62.5 ng/mL (≈ 7.99 to 128 nM); MIC (Trichophyton rubrum; [5]): 3.9 to 62.5 ng/mL (≈ 7.99 to 128 nM) |
| C#CCN(Cc1ccc(Cl)cc1Cl)CC(O)(Cn1cncn1)c1ccc(F)cc1F (stereo unspecified) | 0.24 to 250 ng/mL | 0.24 to 250 ng/mL | 0.24 to 250 ng/mL | 0.24 to 250 ng/mL | 0.24 to 250 ng/mL | 0.24 to 250 ng/mL | 0.24 to 250 ng/mL | – |
| C#CCN(Cc1ccc(Cl)cc1)CC(O)(Cn1cncn1)c1ccc(F)cc1F (stereo unspecified) | 0.24 to 250 ng/mL | 0.24 to 250 ng/mL | 0.24 to 250 ng/mL | 0.24 to 250 ng/mL | 0.24 to 250 ng/mL | 0.24 to 250 ng/mL | 0.24 to 250 ng/mL | – |
| C#CCN(Cc1ccccc1C)CC(O)(Cn1cncn1)c1ccc(F)cc1F (stereo unspecified) | 0.24 to 250 ng/mL | 0.24 to 250 ng/mL | 0.24 to 250 ng/mL | 0.24 to 250 ng/mL | 0.24 to 250 ng/mL | 0.24 to 250 ng/mL | 0.24 to 250 ng/mL | – |
| C#CCN(Cc1ccccc1C#N)CC(O)(Cn1cncn1)c1ccc(F)cc1F (stereo unspecified) | 0.24 to 250 ng/mL | 0.24 to 250 ng/mL | 0.24 to 250 ng/mL | 0.24 to 250 ng/mL | 0.24 to 250 ng/mL | 0.24 to 250 ng/mL | 0.24 to 250 ng/mL | – |
| C#CCN(Cc1ccccc1[N+](=O)[O-])CC(O)(Cn1cncn1)c1ccc(F)cc1F (stereo unspecified) | 0.24 to 250 ng/mL | 0.24 to 250 ng/mL | 0.24 to 250 ng/mL | 0.24 to 250 ng/mL | 0.24 to 250 ng/mL | 0.24 to 250 ng/mL | 0.24 to 250 ng/mL | – |
| Cc1cccc(-c2cn(CC(O)(Cn3cncn3)c3ccc(F)cc3F)nn2)c1 (stereo unspecified) | – | – | – | – | – | – | – | MIC (Trichophyton rubrum; [5]): 250 ng/mL (≈ 631 nM) |
| C#CCN(Cc1ccc(OC)cc1)CC(O)(Cn1cncn1)c1ccc(F)cc1F (stereo unspecified) | 0.24 to 250 ng/mL | 0.24 to 250 ng/mL | 0.24 to 250 ng/mL | 0.24 to 250 ng/mL | 0.24 to 250 ng/mL | 0.24 to 250 ng/mL | 0.24 to 250 ng/mL | – |
| C#CCN(Cc1cccc(F)c1)CC(O)(Cn1cncn1)c1ccc(F)cc1F (stereo unspecified) | 0.24 to 250 ng/mL | 0.24 to 250 ng/mL | 0.24 to 250 ng/mL | 0.24 to 250 ng/mL | 0.24 to 250 ng/mL | 0.24 to 250 ng/mL | 0.24 to 250 ng/mL | – |
| C#CCN(Cc1cccc(C#N)c1)CC(O)(Cn1cncn1)c1ccc(F)cc1F (stereo unspecified) | 0.24 to 250 ng/mL | 0.24 to 250 ng/mL | 0.24 to 250 ng/mL | 0.24 to 250 ng/mL | 0.24 to 250 ng/mL | 0.24 to 250 ng/mL | 0.24 to 250 ng/mL | – |

| Structure (SMILES) | MIC (Cryptococcus neoformans [1]) | MIC (Kluyveromyces marxianus) | MIC (Candida albicans [2]) | MIC (Aspergillus fumigatus) | MIC (Candida tropicalis) | MIC (Candida parapsilosis) | MIC (Trichophyton rubrum) | other results |
| --- | --- | --- | --- | --- | --- | --- | --- | --- |
| OC(Cc1cn(Cn2ncc(CC3CCCCC3)n2)nn1)(Cn1cncn1)c1ccc(F)cc1F (stereo unspecified) | – | – | – | – | – | – | – | MIC (Cryptococcus neoformans [1]; [6]): 0.15 ng/mL (≈ 0.31 nM); MIC (Candida parapsilosis; [7]): 3 ng/mL (≈ 6.2 nM) |
| C#CCN(Cc1cccc([N+](=O)[O-])c1)CC(O)(Cn1cncn1)c1ccc(F)cc1F (stereo unspecified) | 0.24 to 250 ng/mL | 0.24 to 250 ng/mL | 0.24 to 250 ng/mL | 0.24 to 250 ng/mL | 0.24 to 250 ng/mL | 0.24 to 250 ng/mL | 0.24 to 250 ng/mL | – |
| C#CCN(Cc1ccc(C#N)cc1)CC(O)(Cn1cncn1)c1ccc(F)cc1F (stereo unspecified) | 0.24 to 250 ng/mL | 0.24 to 250 ng/mL | 0.24 to 250 ng/mL | 0.24 to 250 ng/mL | 0.24 to 250 ng/mL | 0.24 to 250 ng/mL | 0.24 to 250 ng/mL | – |
| O=C1S/C(=C\c2ccoc2)C(=O)N1CC(O)(Cn1cncn1)c1ccc(F)cc1F (stereo unspecified) | – | – | – | – | – | – | – | MIC80 (Cryptococcus neoformans [3]): 0.12 µM (≈ 0.0519 µg/mL); MIC80 (Candida albicans [4]): 0.03 to 0.15 µM (≈ 0.013 to 0.0649 µg/mL) |
| C#CCN(Cc1ccc(Br)cc1)CC(O)(Cn1cncn1)c1ccc(F)cc1F (stereo unspecified) | 0.24 to 250 ng/mL | 0.24 to 250 ng/mL | 0.24 to 250 ng/mL | 0.24 to 250 ng/mL | 0.24 to 250 ng/mL | 0.24 to 250 ng/mL | 0.24 to 250 ng/mL | – |
| C#CCN(Cc1cccc(Cl)c1)CC(O)(Cn1cncn1)c1ccc(F)cc1F (stereo unspecified) | 0.24 to 250 ng/mL | 0.24 to 250 ng/mL | 0.24 to 250 ng/mL | 0.24 to 250 ng/mL | 0.24 to 250 ng/mL | 0.24 to 250 ng/mL | 0.24 to 250 ng/mL | – |
| O=C1S/C(=C\c2ccc(Cl)cc2Cl)C(=O)N1CC(O)(Cn1cncn1)c1ccc(F)cc1F (stereo unspecified) | – | – | – | – | – | – | – | MIC80 (Cryptococcus neoformans [3]): 0.12 µM (≈ 0.0614 µg/mL); MIC80 (Candida albicans [4]): 0.03 to 0.15 µM (≈ 0.0153 to 0.0767 µg/mL) |
| C#CCN(Cc1c(Cl)cccc1Cl)CC(O)(Cn1cncn1)c1ccc(F)cc1F (stereo unspecified) | 0.24 to 250 ng/mL | 0.24 to 250 ng/mL | 0.24 to 250 ng/mL | 0.24 to 250 ng/mL | 0.24 to 250 ng/mL | 0.24 to 250 ng/mL | 0.24 to 250 ng/mL | – |
| C#CCN(Cc1ccccc1F)CC(O)(Cn1cncn1)c1ccc(F)cc1F (stereo unspecified) | 0.24 to 250 ng/mL | 0.24 to 250 ng/mL | 0.24 to 250 ng/mL | 0.24 to 250 ng/mL | 0.24 to 250 ng/mL | 0.24 to 250 ng/mL | 0.24 to 250 ng/mL | – |
| C#CCN(Cc1ccccc1Br)CC(O)(Cn1cncn1)c1ccc(F)cc1F (stereo unspecified) | 0.24 to 250 ng/mL | 0.24 to 250 ng/mL | 0.24 to 250 ng/mL | 0.24 to 250 ng/mL | 0.24 to 250 ng/mL | 0.24 to 250 ng/mL | 0.24 to 250 ng/mL | – |
| C#CCN(Cc1ccc(F)cc1)CC(O)(Cn1cncn1)c1ccc(F)cc1F (stereo unspecified) | 0.24 to 250 ng/mL | 0.24 to 250 ng/mL | 0.24 to 250 ng/mL | 0.24 to 250 ng/mL | 0.24 to 250 ng/mL | 0.24 to 250 ng/mL | 0.24 to 250 ng/mL | – |
| CCCc1ccc(-c2nnc(SCc3cn(CC(O)(Cn4cncn4)c4ccc(F)cc4F)nn3)o2)cc1 (stereo unspecified) | – | – | – | – | – | – | – | MIC80 (Candida albicans [2]; Candida albicans): 500 ng/mL (≈ 928 nM) |
| Cc1ccccc1-c1nnc(SCc2cn(CC(O)(Cn3cncn3)c3ccc(F)cc3F)nn2)o1 (stereo unspecified) | – | – | – | – | – | – | – | MIC80 (Candida albicans [2]; Candida albicans): 500 ng/mL (≈ 979 nM) |
| CCCCCCc1cnn(Cn2cc(CC(O)(Cn3cncn3)c3ccc(F)cc3F)nn2)n1 (stereo unspecified) | – | – | – | – | – | – | – | MIC (Cryptococcus neoformans [1]; [6]): 0.15 ng/mL (≈ 0.318 nM); MIC (Candida parapsilosis; [7]): 3 ng/mL (≈ 6.36 nM) |
| O=C1S/C(=C\c2ccco2)C(=O)N1CC(O)(Cn1cncn1)c1ccc(F)cc1F (stereo unspecified) | – | – | – | – | – | – | – | MIC80 (Cryptococcus neoformans [3]): 0.12 µM (≈ 0.0519 µg/mL); MIC80 (Candida albicans [4]): 0.03 to 0.15 µM (≈ 0.013 to 0.0649 µg/mL) |
| C#CCN(Cc1ccccc1Cl)CC(O)(Cn1cncn1)c1ccc(F)cc1F (stereo unspecified) | 0.24 to 250 ng/mL | 0.24 to 250 ng/mL | 0.24 to 250 ng/mL | 0.24 to 250 ng/mL | 0.24 to 250 ng/mL | 0.24 to 250 ng/mL | 0.24 to 250 ng/mL | – |
